Reference: patent US6660837B1, “Modified protein derived from protein kinase N” (Kirin Beer Kabushiki Kaisha, priority 1995, dated 2003)

Columns and labels:
[1] = system: head-rod domain of NF subunit (NFL, NFM, NFH); test: Yeast two-hybrid, PKN N-terminal region with NF head-rod domains; format: binding; conditions: lacZ expression
Experimental: Specificity of the interaction between PKN and various NFs was investigated by measuring the ability of the two-hybrid constructs, pBTM116(Vojtek, A. B. et al., Cell, 74, 205-214 (1993)) (instead of pGBT9)-PKN and pVP16 (Vojtek, A. B. et al., Cell, 74, 205-214 (1993)) (instead of pGAD10)-NF or in reverse, to support lacZ expression in L40 cells.
Yeast expression vectors were prepared as follows. Yeast expression vector pVP/NFL#21 for the VP16 transcription activation domain-head-rod domain of human NFL was made by subcloning a EcoRI insert (amino acid sequence 1-349) of a library plasmid #21 originally isolated from two-hybrid screening into pVP16 vector (Vojtek, A. B. et al., Cell, 74, 205-214 (1993)). Yeast expression vectors for the VP16 transcription activation domain—tail domain of NFL and NFH or the VP16 transcription activation domain—head-rod domain or tail domain of NFM were constructed by subcloning BamHI/NotI insert of pGST/NFLt, pGST/NFHt, pGST/NFMhr, and pGST/NFMt (described in Example 8) into pVP16 in frame, respectively (designated respectively as pVP/NFLt, pVP/NFHt, pVP/NFMhr, and pVP/NFMt). […]

[2] = biological target: T1, carboxyl-terminal catalytic region of PKN (Homo sapiens, UniProt Q16512); test: In vitro binding, regulatory with catalytic region of PKN (GST pull-down)
T1 construct: made in house; host or cells: in vitro translation in reticulocyte lysate (Promega)
From the text: Truncated human PKN was made as follows; expression vector pPKN-N for amino-terminal region of PKN was made by digesting phPKN-H4 (human PKN cDNA inserted in pBluescript II SK) (Mukai, H. & Ono, Y., Biochem. Biophys. Res. Commun. 199, 897-904 (1994)) with BstEII, and filling-in both the ends with T4 DNA polymerase, and self-ligation. The resulting plasmid codes for amino acid residues of PKN from 1 to 474 in SEQ ID NO: 1. cDNA insert from this plasmid was cloned into pRc/CMV (Invitrogen Corp.). Fragment coding for the amino acids 614-942, in SEQ ID NO: 1, containing the catalytic domain of human PKN was made by PCR amplification. Expression vector pPKN-C for the carboxyl-terminal region of PKN was made by subcloning this fragment into pRc/CMV. These plasmids were linealized by cutting with XbaI, and cRNA was transcribed using T7 RNA polymerase. cRNA was translated in a […] reticulocyte lysate (Promega) in the presence of [^35S] methionine. […]
In vitro translated PKN-N or PKN-C (2.5 μl) was mixed with 5 μg of each GST-PKN-N or GST-PKN-C fusion protein or 25 μg of GST alone in 400 μl of GST binding buffer [20 mM Tris/HCl (pH 7.5), 0.5 mM DTT, 150 mM NaCl, 0.05% Triton X-100, 1 mM EDTA, 1 μg/ml leupeptin] and incubated for 1 hr at 4° C. […] Quantification of the binding reactions was carried out by a BAS 1000 bio-imaging analyzer (FUJI).

T1 sequence (Q16512 614-942): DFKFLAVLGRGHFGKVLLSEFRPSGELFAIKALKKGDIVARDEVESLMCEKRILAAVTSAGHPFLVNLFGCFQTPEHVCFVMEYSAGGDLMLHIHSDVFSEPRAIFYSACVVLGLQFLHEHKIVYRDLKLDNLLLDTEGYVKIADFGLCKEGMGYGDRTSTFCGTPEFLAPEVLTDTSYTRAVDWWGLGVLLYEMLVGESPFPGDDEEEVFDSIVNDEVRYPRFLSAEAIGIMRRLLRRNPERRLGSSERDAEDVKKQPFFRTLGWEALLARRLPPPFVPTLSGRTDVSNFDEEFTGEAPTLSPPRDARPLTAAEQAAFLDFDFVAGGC

binding to head-rod domain of each NF subunit in two-hybrid system [1]: bound
binding to carboxyl-terminal catalytic region of PKN in vitro [2]: directly binds
Substance: N-terminal region of PKN: N-terminal regulatory region of human PKN: 1-540 (PKNN1) in two-hybrid and GST fusions, 1-474 when in vitro translated
